The record followed here is US20020049257A1, “Antibacterial composition” (priority 2000, published 2002).

Each structure is given as a SMILES string.

Assay [1] deals with Ax 15 Corynebacterium jeikeium. The assay can be described thus: MIC microtiter plate test, axilla strain Ax 15. It counts as cell-based. The conditions noted are these: for Bacteriostatic activity Corynebact. Ax 15: at least 80% reduction in growth during 24 hours, Table 7; for Minimal inhibitory concentration (MIC) Ax 15: at least 80% growth inhibition, 24 h, 36° C., Table 1. An excerpt:
(§1) The different bacterial strains had been isolated from the human axilla by current microbiological practice. They were taxonomically identified by cell morphology, gram-reaction, and biochemical tests included in the Api coryne test kit (BioMerieux, France). Strain Staphylococcus epidermidis Ax25 was identified by fatty acid methyl ester analysis (FAME; German type strain collection DSMZ, Germany). The strains were maintained on Tryptic soy broth plates, this standard medium being amended with 5 g per Liter of Tween 80 and 1 g of Soybean lecithin. Plates were incubated at 36° C. for a period 48 hours. The bacteria were then swabbed from the plates and suspended in 4 ml of Muller-Hinton broth amended with 100 mg of Tween 80 per Liter (MH-Tween) and incubated again at 360 C for 16 hours. Following incubation the bacterial suspensions were diluted in MH-Tween to obtain a final cell density of 10^6 colony forming units per ml. For each fragrance material four microtiter plates were used in the example, each microtiter plate having 8 rows, A-H, and 12 columns, 1-12. To each column a diluted suspension of a different test organism was distributed, 100 μl per well. 1% stock solutions of the fragrance materials were then prepared in MH-Tween broth. The fragrance material was dispersed by ultrasonication into the aqueous medium to obtain a homogenous emulsion. 100 μl per well of this emulsion was then added to the first row of the microtiter plates already containing the target organisms. Serial dilution series were then prepared starting at row A and continuing until row G, each time removing 100 μl from a well and transferring it to the next well. In this way fragrance concentrations of 0.5%, 0.25%, 0.125%, 0.0625%, 0.03125%, 0.0156%, and 0.0078% were tested for their antibacterial efficacy. The reference compound Triclosan was tested at 16-fold lower concentrations. The plates were covered with plastic films and incubated for 24 h at 36° C. with shaking at 250 rpm. The turbidity developing in the microtiter plates was then examined after 24 h to determine microbial growth. The minimal concentration of fragrance inhibiting the growth of an organism by at least 80% was determined as the minimal inhibitory concentration (MIC).
(§2) Ax 25 was identified as Staphylococcus epidermidis by FAME analysis. Identification with the Api Coryne test kit yielded the following species assignments for the remainder of the strains: Ax 26 Corynebacterium sp.; Ax 3 Corynebacterium bovis; Ax 7 Corynebacterium group G; Ax 10 Corynebacterium jeikeium; Ax 11 Corynebacterium jeikeium; Ax 12 Corynebacteriurn jeikeium; Ax 15 Corynebacterium jeikeium; Ax 20 Corynebacterium striatum/amycolatum; and Ax 19 Corynebacterium jeikeium. The strains were isolated from the axilla of 8 human volunteers. Based on biochemical tests and colony morphology all strains were distinct from each other, even the several strains all belonging to Corynebacterium jeikelurn.

The test system of assay [2] is Ax 26 Corynebacterium sp. The assay is described as follows: MIC microtiter plate test, axilla strain Ax 26. The conditions noted are these: for Bacteriostatic activity Corynebact. Ax 26: at least 80% reduction in growth during 24 hours, Table 7; for Minimal inhibitory concentration (MIC) Ax 26: at least 80% growth inhibition, 24 h, 36° C., Table 1. Format: cell-based.
Text: as §1
Ax 25 was identified as Staphylococcus epidermidis by FAME analysis. Identification with the Api Coryne test kit yielded the following species assignments for the remainder of the strains: Ax 26 Corynebacterium sp.; Ax 3 Corynebacterium bovis; Ax 7 Corynebacterium group G; Ax 10 Corynebacterium jeikeium; Ax 11 Corynebacterium jeikeium; Ax 12 Corynebacteriurn jeikeium; Ax 15 Corynebacterium jeikeium; Ax 20 Corynebacterium striatum/amycolatum; and Ax 19 Corynebacterium jeikeium. The strains were isolated from the axilla of 8 human volunteers. […]

The next assay relates to Corynebacteria. The assay is described as follows: MIC against Corynebacteria (average / overall). Format: cell-based, Corynebacterium. The conditions noted are these: malodor forming axilla bacteria. The text has this:
(§3) The different bacterial strains had been isolated from the human axilla by current microbiological practice. They were taxonomically identified by cell morphology, gram-reaction, and biochemical tests included in the Api coryne test kit (BioMerieux, France). Strain Staphylococcus epidermidis Ax25 was identified by fatty acid methyl ester analysis (FAME; German type strain collection DSMZ, Germany). The strains were maintained on Tryptic soy broth plates, this standard medium being amended with 5 g per Liter of Tween 80 and 1 g of Soybean lecithin. Plates were incubated at 36° C. for a period 48 hours. The bacteria were then swabbed from the plates and suspended in 4 ml of Muller-Hinton broth amended with 100 mg of Tween 80 per Liter (MH-Tween) and incubated again at 360 C for 16 hours. Following incubation the bacterial suspensions were diluted in MH-Tween to obtain a final cell density of 10^6 colony forming units per ml. For each fragrance material four microtiter plates were used in the example, each microtiter plate having 8 rows, A-H, and 12 columns, 1-12. […]
Since sandela is known to be a mixture of different reaction products, commercial sandela was subjected to a distillation process. […] The different fractions were evaluated for their antimicrobial activity (Table 6) with the method described in example 1. […]

Assay [3] deals with Ax 3 Corynebacterium bovis. The assay can be described thus: MIC microtiter plate test, axilla strain Ax 3. The conditions noted are these: at least 80% growth inhibition, 24 h, 36° C.; Table 1. It counts as cell-based.
Text: as §1, with “The minimal concentration of fragrance inhibiting the growth of an organism by at least 80% was determined as the minimal inhibitory concentration (MIC).” left out

Assay [4] concerns Ax 12 Corynebacteriurn jeikeium. The assay can be described thus: MIC microtiter plate test, axilla strain Ax 12. It counts as cell-based, Corynebacterium jeikeium. The conditions noted are these: at least 80% growth inhibition, 24 h, 36° C.; Table 1.
Text: as §1, with “The minimal concentration of fragrance inhibiting the growth of an organism by at least 80% was determined as the minimal inhibitory concentration (MIC).” left out

The subject of assay [5] is Ax 11 Corynebacterium jeikeium. The assay is described as follows: MIC microtiter plate test, axilla strain Ax 11. Format: cell-based. The conditions noted are these: at least 80% growth inhibition, 24 h, 36° C.; Table 1.
Text: as §1, with “The minimal concentration of fragrance inhibiting the growth of an organism by at least 80% was determined as the minimal inhibitory concentration (MIC).” left out

The subject of assay [6] is Ax 20 Corynebacterium striatum/amycolatum. The assay can be described thus: MIC microtiter plate test, axilla strain Ax 20. The conditions noted are these: at least 80% growth inhibition, 24 h, 36° C.; Table 1. Format: cell-based.
Text: as §1, with “The minimal concentration of fragrance inhibiting the growth of an organism by at least 80% was determined as the minimal inhibitory concentration (MIC).” left out

Assay [7] relates to Ax 7 Corynebacterium group G. The assay is described as follows: MIC microtiter plate test, axilla strain Ax 7. Format: cell-based. The conditions noted are these: for Minimal inhibitory concentration (MIC) Ax 7: at least 80% growth inhibition, 24 h, 36° C., Table 1.
Text: as §1, §2

The subject of assay [8] is Propionibacterium acnes DSMZ1897. The assay can be described thus: MIC against Propionibacterium acnes, anaerobic, 72 hours. Format: cell-based. The conditions noted are these: DSMZ1897, anaerobic conditions.
The test system of assay [9] is Ax 19 Corynebacterium jeikeium. The assay can be described thus: MIC microtiter plate test, axilla strain Ax 19. It counts as cell-based. The conditions noted are these: at least 80% growth inhibition, 24 h, 36° C.; Table 1.
Text: as §3, with “1-12. To each column a diluted suspension of a different test organism was distributed, 100 μl per well. 1% stock solutions of the fragrance materials were then prepared in MH-Tween broth. The fragrance material was dispersed by ultrasonication into the aqueous medium to obtain a homogenous emulsion.” for “1-12.”

In assay [10] the test system is Ax 10 Corynebacterium jeikeium. The assay is described as follows: MIC microtiter plate test, axilla strain Ax 10. Format: cell-based. The conditions noted are these: at least 80% growth inhibition, 24 h, 36° C.; Table 1.
Text: as §3, with “1-12. To each column a diluted suspension of a different test organism was distributed, 100 μl per well. 1% stock solutions of the fragrance materials were then prepared in MH-Tween broth. The fragrance material was dispersed by ultrasonication into the aqueous medium to obtain a homogenous emulsion.” for “1-12.”

Assay [11] deals with Brevibacterium epidermidis DSMZ 9586. The assay can be described thus: MIC against Brevibacterium epidermidis. The conditions noted are these: DSMZ 9586, method of Example 1. It counts as cell-based.
Text: as §1
A selection of perfume compounds were tested against Brevibacterium epidermidis DSMZ 9586 (German Collection of Microorganisms and Cell Cultures) with the method described in Example 1.

With `COC1CC(C2CC3CC2C(C)C3(C)C)CCC1O` (single isomer, unassigned) [Peak A], the “Bacteriostatic activity Corynebact. Ax 15” value in assay [1] is reported as 0.0048 percent (w/v). The “Bacteriostatic activity Corynebact. Ax 26” value in [2] is listed as 0.0028 percent (w/v).
For `COC1CC(C2CC3CC2C(C)C3(C)C)CCC1O` (single isomer, unassigned) [Peak B], the “Bacteriostatic activity Corynebact. Ax 15” value in assay [1] is on record as 0.0028 percent (w/v). The “Bacteriostatic activity Corynebact. Ax 26” value in assay [2] is 0.0016 percent (w/v).
Turning to `COC1CC(C2CC3CC2C(C)C3(C)C)CCC1O` (stereo not drawn) [2-methoxy-4-(5,5,6-trimethylbicyclo[2.2.1]hept-2-yl)cyclohexan-1-ol], in the assay with Corynebacteria, the “activity against Corynebacteria (in words)” value is “highest activity”.
The same measure, in the same setting: the value for `COC1CCC(C2CC3CC2C(C)C3(C)C)CC1O` (stereo not drawn) [2-methoxy-5-(5,5,6-trimethyl-bicyclo[2.2.1]hept-2-yl)cyclohexan-1-ol] was “highest activity”.
Consider `CC1=CCC(/C=C\C(C)C(C)O)C1(C)C` (stereo not drawn) [Ebanol], for which the “Minimal inhibitory concentration (MIC) Ax 3” value in assay [3] was 0.1250 % weight/ volume. Also, the “Minimal inhibitory concentration (MIC) Ax 12” value in assay [4] worked out at 0.2500 % weight/ volume. Moreover, in assay [1], the “Minimal inhibitory concentration (MIC) Ax 15” value was 0.2500 % weight/ volume. Besides, the “Minimal inhibitory concentration (MIC) Ax 26” value in assay [2] amounted to 0.1250 % weight/ volume. For the same molecule, the “Minimal inhibitory concentration (MIC) Ax 11” value in [5] is listed as 0.2500 % weight/ volume. In assay [6], the “Minimal inhibitory concentration (MIC) Ax 20” value is 0.1250 % weight/ volume. The “Minimal inhibitory concentration (MIC) Ax 7” value in assay [7] was found to be 0.1250 % weight/ volume.
In the case of `CC(C)=CCCC(C)=CCCC(C)=CCO` [Farnesol, 3,7,11-trimethyl-2,6,10-dodecatrien-1-ol], the “MIC for Propionibacterium acnes” value in assay [8] was 0.0078 % w/v. Also, in assay [3], the “Minimal inhibitory concentration (MIC) Ax 3” value was 0.0156 % weight/ volume. Further, in [9], the “Minimal inhibitory concentration (MIC) Ax 19” value was 0.0156 % weight/ volume. In assay [4], the “Minimal inhibitory concentration (MIC) Ax 12” value turned out to be 0.0137 % weight/ volume. In [1], the “Minimal inhibitory concentration (MIC) Ax 15” value was 0.0156 % weight/ volume and the “Bacteriostatic activity Corynebact. Ax 15” value is listed as 0.0156 percent (w/v). Moreover, in assay [10], the “Minimal inhibitory concentration (MIC) Ax 10” value is on record as 0.0078 % weight/ volume. Also, the “Minimal inhibitory concentration (MIC) Ax 20” value in assay [6] came out at 0.0137 % weight/ volume. Further, the “MIC for Brevibacterium epidermidis” value in [11] worked out at 0.0078 % w/v.
As for `CCC(=CCC1CC=C(C)C1(C)C)CO` (stereo not drawn) [Radjanol], in assay [11], the “MIC for Brevibacterium epidermidis” value is given as 0.03125 % w/v. Besides, the “Minimal inhibitory concentration (MIC) Ax 7” value in assay [7] is 0.0625 % weight/ volume.
For the molecule `CC1=CCC(CCC(C)C(C)O)C1(C)C` (stereo not drawn) [Sandalore], the “MIC for Propionibacterium acnes” value in assay [8] is on record as 0.25 % w/v. In [3], the “Minimal inhibitory concentration (MIC) Ax 3” value turned out to be 0.1250 % weight/ volume. Moreover, the “Minimal inhibitory concentration (MIC) Ax 12” value in [4] came to 0.1250 % weight/ volume. In assay [2], the “Minimal inhibitory concentration (MIC) Ax 26” value was 0.1250 % weight/ volume. The “Minimal inhibitory concentration (MIC) Ax 10” value in assay [10] amounted to 0.1250 % weight/ volume. Also, the “Minimal inhibitory concentration (MIC) Ax 11” value in assay [5] is given as 0.1250 % weight/ volume. The “Minimal inhibitory concentration (MIC) Ax 20” value in assay [6] was 0.1250 % weight/ volume. Moreover, in [11], the “MIC for Brevibacterium epidermidis” value is on record as 0.0937 % w/v. Further, in [7], the “Minimal inhibitory concentration (MIC) Ax 7” value was 0.1250 % weight/ volume.
With `Oc1cc(Cl)ccc1Oc1ccc(Cl)cc1Cl` [Triclosan, 2,4,4′-trichloro-2′-hydroxy-diphenyl-ether], the “MIC for Propionibacterium acnes” value in assay [8] is recorded as 0.00039 % w/v. Moreover, in assay [1], the “Minimal inhibitory concentration (MIC) Ax 15” value came to 0.0029 % weight/ volume. Also, the “Minimal inhibitory concentration (MIC) Ax 11” value in assay [5] was found to be 0.0029 % weight/ volume. Further, in assay [11], the “MIC for Brevibacterium epidermidis” value is listed as 0.003125 % w/v. In assay [7], the “Minimal inhibitory concentration (MIC) Ax 7” value was determined as 0.0029 % weight/ volume. In addition, the “Bacteriostatic activity Corynebact. Ax 7” value in assay [7] (at least 80% reduction in growth during 24 hours, Table 7) is recorded as 0.0025 percent (w/v).
